Measurements as given in publication PMC11725581, “Developing novel Lin28 inhibitors by computer aided drug design” (Cell Death Discovery, 2025).

How the values were obtained:
Assay type in all cases: cell-based
Du145 spheroids = assay: Du145 spheroid growth; settings: 0-192 h
From the text: To further evaluate whether the suppressive effects of Ln268 are specific to Lin28-positive cancer cells, we compared cell growth rates of DuNE (Lin28b-positive line) and Du145 (Lin28b-negative line), both of which are Lin28a-negative. DuNE has the same genomic background with Du145 except for the transduction of the SRRM4 gene. […] Furthermore, Ln268 had no impact on the cell growth of DuNE(KO) cells, in which the Lin28b gene was knocked out by CRISPR (Fig. 5C). […] We also tested several ovarian and endometrial cancer cell lines with different Lin28a and Lin28b expression profiles (Fig. 5E).
For a spheroid generation, 1000 cells/well were seeded in 96-well ULA round-bottomed plates (Corning, Amsterdam) using a multichannel pipette. 3D multicellular spheroids were spontaneously generated after 24 h culture. Plates were incubated for 6 days at 37 °C, 5% CO2, and 95% humidity. DuNE and Du145 cells were cultured in DMEM with 10% FBS. Fully automated image analysis of tumor spheroids was carried out with the Incucyte® S3 Live-Cell Analysis System. The size and shape of multicellular spheroids were analyzed by using the Incucyte® Spheroid Analysis Software Module.

[1] = system: Lin28b-mediated SG formation in DuNE cells; assay: Stress granule (SG) formation induced by ARS, confocal microscopy
From the text: To assess whether Lin28 inhibitors can inhibit SG formation in cancer cells, we induced SGs in DuNE cells using ARS. These cells were co-treated with either vehicle, C1632, Ln15, or Ln268 (Fig. 6F). As a positive control, RNase was also included since it is known to prevent Lin28-mediated SG formation. Under vehicle treatment condition, Lin28b was primarily localized within SGs; however, in the presence of Lin28 inhibitors, its subcellular distribution became more diffuse, extending beyond SGs. SG formation involves a dynamic process in which initial smaller granules coalesce to form larger, mature SGs through phase separation (Fig. 6F).
Cells were fixed with 4% paraformaldehyde, treated in 0.25% Triton X-100 for 15 mins, and mounted with DAPI staining mount (Vector Labs; Burlingame, USA). Cell images were captured by confocal microscopy at 63X magnification (Zeiss; Germany).

DuNE cells = assay: Drug-drug interaction (SynergyFinder) in DuNE cells; settings: score higher than 10 = synergistic
Method: Fig. 6 Ln268 enhances stress inducers to inhibit cancer cell growth. A, B DuNE cells were transfected with GFP-tagged Lin28b together with either RFP-tagged G3BP1, YB-1, or DCP1. Cells were then challenged with ARS (A), cisplatin (CP) or etoposide (etop) (B) to induce a stress condition. Confocal microscope detected the subcellular localization of Lin28b. C, D Du145, DuNE and DuNE(KO) cells were treated with ARS (C), cisplatin (CP) or etoposide (etop) (D). Percentage of cells forming SGs was counted in five random fields from two replicate experiments. E DuNE and DuNE(KO) cells were treated with ARS, cisplatin or etoposide. Cell viability was measured by Incucyte. F DuNE cells were transfected with GFP-tagged Lin28b and treated with ARS together with C1632, Ln15, Ln268, or RNase. Confocal microscope detected SGs formation mediated by Lin28b. Fluorescence images were captured, and SGs sizes and numbers were calculated as shown. […] Drug interactions were calculated by SynergyFinder, with a synergy score higher than 10 representing synergistic relationship. […]
We subsequently investigated whether Ln268 could potentiate anticancer effects of stress inducers to block cancer cell growth in vitro. First, we determined the IC50 values of each inhibitor, which were then used to formulate drug-drug interactions of Ln268 with cisplatin, etoposide, or ARS (Figure S5). […]

[2] = system: Lin28b, let-7 target, CSC and NE biomarker genes in DuNE cells; assay: Gene expression (real-time qPCR, immunoblotting) in DuNE cells; settings: 72 h
Method: Fig. 4 Ln268 strongly blocks cancer cell stemness of t-NEPC cells. A, B DuNE cells were treated with C1632, Ln15, and Ln268 for 72 h. Selected Let-7 targeted genes, stem cell biomarkers and NE biomarkers were measured by real-time qPCR (A). Lin28b and its downstream HMGA2 protein levels were measured by immunoblotting (B). C DuNE spheroids were treated with 0–100 μM of C1632, Ln15, and Ln268 for 0–6 days. Spheroid sizes were measured and plotted. D DuNE cells were used to perform colony formation assays in the presence of C1632, Ln15 and Ln268 for 14 days. The number of colonies formed in each treatment counted and plotted. E DuNE cells under 3D culture conditions were treated with C1632, Ln15, and Ln268 at the indicated concentrations. Cell growth rates were measured by Incucyte. F DuNE cells were treated with 0–20 μM Ln268 for 144 h. FACS measured cell populations at each stage of cell cycling. Three independent biological replicates were performed for all the assays. All results are presented as the mean ± SD.
Total RNA was extracted by TRIZOL reagent (Invitrogen), treated with deoxyribonuclease and reversely transcribed by random hexamers and superscript II (Invitrogen). Real-time qPCR was performed on the ABI PRISM 7900 HT system (Applied Biosystems) using the FastStart Universal SYBR Green Master mix (Roche) following standard protocol as we reported. […]

Q: What does the source list for O=c1[nH]c(Nc2ccc(F)cc2O)cs1 [Ln268]?
A: effect on Du145 spheroids (Du145 spheroids): no effect; effect on aggregation of smaller granules (<20 pixels) into larger SGs (>50 pixels) [1]: the most suppressive effect; synergy score, Ln268 + cisplatin (DuNE cells): 19.39; synergy score, Ln268 + etoposide (DuNE cells): 12.77; effect on Lin28b mRNA and protein levels [2]: potently inhibited Lin28b at both mRNA and protein levels; inhibition of Oct4, Nanog and ID4 expression relative to C1632 ([2]; qPCR): stronger inhibitory effects than C1632
